Data taken from US20260274837A1, “PESTICIDALLY ACTIVE HETEROCYCLIC DERIVATIVES WITH SULFUR CONTAINING SUBSTITUENTS” (SYNGENTA CROP PROTECTION AG, priority 2023, published 2026).

Key:
Assay type in all cases: in vivo
Chilo suppressalis = experiment: Activity against Chilo suppressalis (striped rice stemborer), artificial diet in 24-well plates; settings: 144 h, application rate 200 ppm, L2 larvae, assessed 6 days after infestation vs untreated, read-out: control (at least one of mortality, anti-feedant effect, growth inhibition)
Method: Example B1: Activity Against Chilo suppressalis (Striped Rice Stemborer)
24-well microtiter plates with artificial diet were treated with aqueous test solutions prepared from 10′000 ppm DMSO stock solutions by pipetting. After drying, the plates were infested with L2 larvae (6-8 per well). The samples were assessed for mortality, anti-feeding effect, and growth inhibition in comparison to untreated samples 6 days after infestation. Control of Chilo suppressalis by a test sample is given when at least one of the categories mortality, anti-feedant effect, and growth inhibition is higher than the untreated sample.

Diabrotica balteata = experiment: Activity against Diabrotica balteata (corn root worm), sprayed maize sprouts on agar; settings: 96 h, application rate 200 ppm, L2 larvae, assessed 4 days after infestation vs untreated, read-out: effect in at least one of the two categories (mortality or growth inhibition)
Method: Example B2: Activity Against Diabrotica Balteata (Corn Root Worm)
Maize sprouts placed onto an agar layer in 24-well microtiter plates were treated with aqueous test solutions prepared from 10′000 ppm DMSO stock solutions by spraying. After drying, the plates were infested with L2 larvae (6 to 10 per well). The samples were assessed for mortality and growth inhibition in comparison to untreated samples 4 days after infestation.

Plutella xylostella = experiment: Activity against Plutella xylostella (diamond back moth), artificial diet in 24-well plates; settings: 192 h, application rate 200 ppm, eggs, assessed 8 days after infestation vs untreated, read-out: effect in at least one of the two categories (mortality or growth inhibition)
Method: Example B3: Activity Against Plutella xylostella (Diamond Back Moth)
24-well microtiter plates with artificial diet were treated with aqueous test solutions prepared from 10′000 ppm DMSO stock solutions by pipetting. After drying, Plutella eggs were pipetted through a plastic stencil onto a gel blotting paper and the plate was closed with it. The samples were assessed for mortality and growth inhibition in comparison to untreated samples 8 days after infestation.

Spodoptera littoralis = experiment: Activity against Spodoptera littoralis (Egyptian cotton leaf worm), sprayed cotton leaf discs; settings: foliar, 72 h, application rate 200 ppm, L1 larvae, assessed 3 days after infestation vs untreated, read-out: control (at least one of mortality, anti-feedant effect, growth inhibition)
Method: Example B4: Activity Against Spodoptera littoralis (Egyptian Cotton Leaf Worm)
Cotton leaf discs were placed onto agar in 24-well microtiter plates and sprayed with aqueous test solutions prepared from 10′000 ppm DMSO stock solutions. After drying the leaf discs were infested with five L1 larvae. The samples were assessed for mortality, anti-feeding effect, and growth inhibition in comparison to untreated samples 3 days after infestation. Control of Spodoptera littoralis by a test sample is given when at least one of the categories mortality, anti-feedant effect, and growth inhibition is higher than the untreated sample.

CCS(=O)(=O)c1c(-c2coc3cc(C(F)(F)F)ccc3c2=O)nc2cc(C(F)(F)F)ccn12 [P.1, 3-[3-ethylsulfonyl-7-(trifluoromethyl)imidazo[1,2-a]pyridin-2-yl]-7-(trifluoromethyl)chromen-4-one]
≥ 80%: percent control (mortality, anti-feedant effect or growth inhibition) at 200 ppm (Chilo suppressalis) | percent effect (mortality or growth inhibition) at 200 ppm (Diabrotica balteata) | percent effect (mortality or growth inhibition) at 200 ppm (Plutella xylostella) | percent control (mortality, anti-feedant effect or growth inhibition) at 200 ppm (Spodoptera littoralis)
